Experiments:
[1] = target: T1, Tyrosine-protein kinase Mer (Homo sapiens, UniProt Q12866); test: Inhibition of MER (unknown origin) by LC-MS analysis
T1 sequence (Q12866 whole entry): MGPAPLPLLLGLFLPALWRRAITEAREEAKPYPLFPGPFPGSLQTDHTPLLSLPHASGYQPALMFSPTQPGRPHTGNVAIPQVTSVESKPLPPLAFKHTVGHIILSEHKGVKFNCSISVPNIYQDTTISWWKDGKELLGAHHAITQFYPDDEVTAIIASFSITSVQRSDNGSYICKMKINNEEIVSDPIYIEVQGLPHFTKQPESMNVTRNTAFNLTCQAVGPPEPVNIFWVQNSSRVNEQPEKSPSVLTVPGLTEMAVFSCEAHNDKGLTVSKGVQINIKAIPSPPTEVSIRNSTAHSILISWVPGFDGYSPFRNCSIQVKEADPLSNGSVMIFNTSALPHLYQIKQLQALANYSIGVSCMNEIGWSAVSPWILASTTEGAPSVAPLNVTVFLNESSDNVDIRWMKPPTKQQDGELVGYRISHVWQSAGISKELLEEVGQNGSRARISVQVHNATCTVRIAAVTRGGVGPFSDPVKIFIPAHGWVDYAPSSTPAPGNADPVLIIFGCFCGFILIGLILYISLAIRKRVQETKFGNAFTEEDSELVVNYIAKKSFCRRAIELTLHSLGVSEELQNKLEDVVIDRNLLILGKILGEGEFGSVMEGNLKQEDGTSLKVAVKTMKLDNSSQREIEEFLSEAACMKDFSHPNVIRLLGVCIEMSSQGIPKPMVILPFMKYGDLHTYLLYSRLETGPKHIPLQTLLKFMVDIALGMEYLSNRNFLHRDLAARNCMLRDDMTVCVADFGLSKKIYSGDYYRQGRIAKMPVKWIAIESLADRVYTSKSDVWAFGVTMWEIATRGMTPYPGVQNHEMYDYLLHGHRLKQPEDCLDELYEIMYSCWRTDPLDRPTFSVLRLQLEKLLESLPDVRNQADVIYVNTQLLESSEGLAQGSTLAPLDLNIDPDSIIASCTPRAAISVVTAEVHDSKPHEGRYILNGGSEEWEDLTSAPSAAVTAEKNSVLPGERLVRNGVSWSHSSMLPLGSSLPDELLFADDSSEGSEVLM

[2] = target: T2, Tyrosine-protein kinase receptor UFO (Homo sapiens, UniProt P30530); test: Inhibition of AXL (unknown origin) by LC-MS analysis
T2 sequence (P30530 whole entry): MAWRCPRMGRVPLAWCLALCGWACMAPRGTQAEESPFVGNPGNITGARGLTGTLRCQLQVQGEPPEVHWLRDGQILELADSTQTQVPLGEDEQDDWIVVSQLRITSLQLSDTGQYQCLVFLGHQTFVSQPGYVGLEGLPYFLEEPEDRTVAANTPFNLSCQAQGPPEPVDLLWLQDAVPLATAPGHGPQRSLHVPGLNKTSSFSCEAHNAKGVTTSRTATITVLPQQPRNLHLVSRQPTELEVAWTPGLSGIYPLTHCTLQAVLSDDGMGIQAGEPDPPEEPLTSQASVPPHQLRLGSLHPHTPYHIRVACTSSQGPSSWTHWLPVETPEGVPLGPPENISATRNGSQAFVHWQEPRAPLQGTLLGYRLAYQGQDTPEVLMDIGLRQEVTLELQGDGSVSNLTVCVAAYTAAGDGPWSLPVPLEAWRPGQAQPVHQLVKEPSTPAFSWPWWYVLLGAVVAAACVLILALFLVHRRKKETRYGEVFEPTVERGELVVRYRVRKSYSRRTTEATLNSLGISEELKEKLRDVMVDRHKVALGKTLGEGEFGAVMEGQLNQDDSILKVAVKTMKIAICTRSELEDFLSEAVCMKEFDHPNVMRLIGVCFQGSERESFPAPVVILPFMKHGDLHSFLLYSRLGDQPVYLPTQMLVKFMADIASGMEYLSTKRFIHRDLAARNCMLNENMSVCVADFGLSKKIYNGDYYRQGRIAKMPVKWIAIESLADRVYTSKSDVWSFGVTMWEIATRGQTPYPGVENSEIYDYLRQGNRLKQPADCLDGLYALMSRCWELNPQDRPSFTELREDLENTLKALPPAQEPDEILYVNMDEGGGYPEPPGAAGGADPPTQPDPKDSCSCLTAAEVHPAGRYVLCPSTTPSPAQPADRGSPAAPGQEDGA

[3] = target: T3, Receptor-type tyrosine-protein kinase FLT3 (Homo sapiens, UniProt P36888); test: Inhibition of FLT3 (unknown origin) by LC-MS analysis
T3 sequence (P36888 whole entry): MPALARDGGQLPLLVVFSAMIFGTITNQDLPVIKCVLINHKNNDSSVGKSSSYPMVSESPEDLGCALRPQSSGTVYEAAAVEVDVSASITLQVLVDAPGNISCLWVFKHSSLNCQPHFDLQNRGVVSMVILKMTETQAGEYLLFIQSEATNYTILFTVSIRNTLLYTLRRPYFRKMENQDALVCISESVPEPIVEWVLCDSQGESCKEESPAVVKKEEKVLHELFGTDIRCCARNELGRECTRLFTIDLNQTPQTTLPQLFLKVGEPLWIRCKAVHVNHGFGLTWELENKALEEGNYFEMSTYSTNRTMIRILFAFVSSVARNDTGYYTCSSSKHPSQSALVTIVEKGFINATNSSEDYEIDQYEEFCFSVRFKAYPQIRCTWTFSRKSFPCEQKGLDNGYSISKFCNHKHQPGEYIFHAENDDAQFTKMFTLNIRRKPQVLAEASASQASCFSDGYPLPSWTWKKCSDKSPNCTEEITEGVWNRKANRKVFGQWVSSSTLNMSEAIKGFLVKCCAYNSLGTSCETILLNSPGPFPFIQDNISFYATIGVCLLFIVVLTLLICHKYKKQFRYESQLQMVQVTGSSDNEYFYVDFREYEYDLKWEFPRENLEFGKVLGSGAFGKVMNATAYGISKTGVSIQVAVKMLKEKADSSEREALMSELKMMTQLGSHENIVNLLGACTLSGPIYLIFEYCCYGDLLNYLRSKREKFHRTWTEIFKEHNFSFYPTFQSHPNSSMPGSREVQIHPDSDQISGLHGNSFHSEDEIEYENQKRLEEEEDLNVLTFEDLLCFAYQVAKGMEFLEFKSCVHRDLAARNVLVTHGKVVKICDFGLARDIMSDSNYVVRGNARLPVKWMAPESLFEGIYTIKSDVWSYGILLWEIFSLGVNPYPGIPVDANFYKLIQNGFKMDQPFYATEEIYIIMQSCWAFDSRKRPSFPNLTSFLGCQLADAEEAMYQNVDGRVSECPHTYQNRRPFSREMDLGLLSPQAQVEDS

[4] = Lipophilicity, log D of the compound at pH 7.4; assay type: physicochemical; conditions: buffer
[5] = target: T2, Tyrosine-protein kinase receptor UFO; test: Inhibition of FLAG-tagged AXL (unknown origin) transfected in Cos-7 cells assessed as phosphorylation level incubated for 1 hr by ELISA; assay type: cell-based
[6] = target: T3, Receptor-type tyrosine-protein kinase FLT3; test: Inhibition of FLAG-tagged FLT3 (unknown origin) transfected in Cos-7 cells assessed as phosphorylation level incubated for 1 hr by ELISA; assay type: cell-based

SMILES	IC50 [1]	IC50 [2]	IC50 [3]	logD [4]	IC50 [5]	IC50 [6]
COc1ccccc1-c1ccc(-c2nnc(N(C)Cc3ccc4nccn4c3)o2)cc1	0.0316 µM	1.58 µM	50.1 µM	4.1	–	–
CN(Cc1ccc2nccn2c1)c1nnc(-c2ccccc2)o1	15.8 µM	> 100 µM	> 100 µM	2.4	–	–
Cc1cc(-c2c(C#N)nn(C)c2C)ccc1-c1nnc(N(C)Cc2ccc3nccn3c2)o1	0.0316 µM	6.31 µM	25.1 µM	3.4	6.31 µM	–
Cc1ccccc1-c1ccc(-c2nnc(N(C)Cc3ccc4nccn4c3)o2)cc1	0.0126 µM	0.631 µM	1 µM	4.7	–	–
Cc1cc(-c2c(C)nn(C)c2C#N)ccc1-c1nnc(N(C)Cc2ccc3nccn3c2)o1	0.00158 µM	0.0398 µM	15.8 µM	3.8	0.398 µM	> 31.6 µM
CN(Cc1ccc2nccn2c1)c1nnc(-c2ccc(-c3ccccc3F)cc2)o1	0.0158 µM	1.58 µM	50.1 µM	4.4	–	–
Cc1cc(-c2c(C)nc(C)n2C)ccc1-c1nnc(N(C)Cc2ccc3nccn3c2)o1	0.0398 µM	3.98 µM	39.8 µM	2.6	5.01 µM	> 50.1 µM
Cc1nc(-c2c(C)nn(C)c2C)ccc1-c1nnc(N(C)Cc2ccc3nccn3c2)o1	0.0631 µM	3.16 µM	> 100 µM	2.5	10 µM	> 31.6 µM
Cc1cc(-c2c(C)nn(C(F)F)c2C)ccc1-c1nnc(N(C)Cc2ccc3nccn3c2)o1	0.501 µM	63.1 µM	100 µM	4.1	> 10 µM	> 31.6 µM
Cc1nn(C)c(C)c1-c1ccc(-c2nnc(N(C)Cc3ccc4nccn4c3)o2)c(Cl)c1	0.00251 µM	0.0794 µM	20 µM	3.3	0.794 µM	> 31.6 µM
COc1cc(-c2c(C)nn(C)c2C)ccc1-c1nnc(N(C)Cc2ccc3nccn3c2)o1	0.0158 µM	0.794 µM	39.8 µM	2.9	2 µM	> 31.6 µM
Cc1nn(C)c(C)c1-c1ccc(-c2nnc(N(C)Cc3ccc4nccn4c3)o2)c(C#N)c1	100 µM	> 100 µM	79.4 µM	2.9	> 31.6 µM	> 31.6 µM
Cc1nn(C)c(C)c1-c1ccc(-c2nnc(N(C)Cc3ccc4nccn4c3)o2)cc1	0.0316 µM	1.26 µM	> 63.1 µM	3.1	3.16 µM	–
Cc1ncccc1-c1ccc(-c2nnc(N(C)Cc3ccc4nccn4c3)o2)cc1	0.0501 µM	6.31 µM	20 µM	3.1	–	–
Cc1cc(-c2cnn(C)c2C)ccc1-c1nnc(N(C)Cc2ccc3nccn3c2)o1	0.002 µM	0.1 µM	63.1 µM	3.4	0.794 µM	> 31.6 µM
CN(Cc1ccc2nccn2c1)c1nnc(-c2ccc(-c3ccccc3)cc2)o1	0.0398 µM	3.16 µM	25.1 µM	3.9	–	–
CN(Cc1ccc2nccn2c1)c1nnc(-c2ccc(-c3ccccc3C#N)cc2)o1	0.0251 µM	3.98 µM	10 µM	3.6	–	–
CN(Cc1ccc2nccn2c1)c1nnc(-c2ccc(C3CC3)cc2)o1	0.794 µM	20 µM	25.1 µM	3.5	–	–
Cc1noc(C)c1-c1ccc(-c2nnc(N(C)Cc3ccc4nccn4c3)o2)cc1	0.2 µM	31.6 µM	39.8 µM	3.1	–	–
Cc1cc(-c2c(C)n[nH]c2C)ccc1-c1nnc(N(C)Cc2ccc3nccn3c2)o1	0.0398 µM	5.01 µM	39.8 µM	3.8	15.8 µM	7.94 µM
Cc1nn(C)c(C)c1-c1ccc(-c2nnc(N(C)Cc3ccc4nccn4c3)o2)c(F)c1	0.0126 µM	1.26 µM	> 100 µM	3.2	3.16 µM	> 31.6 µM

Reference: ChEMBL document CHEMBL4825753 (J Med Chem, 2021)
